Experimental data published in patent US20110053995A1, “BENZENESULFONANILIDE COMPOUND INHIBITORS OF UREA TRANSPORTERS” (THE REGENTS OF THE UNIVERSITY OF CALIFORNIA, priority 2006, published 2011).

Biological target: T1, rat UT-A1 (Rattus norvegicus, UniProt Q62668)
T1 construct: expressed in transfected cells; host or cells: MDCK cells (gift of Dr. Jeffrey Sands, Emory University)
T1 sequence (Q62668 1-929): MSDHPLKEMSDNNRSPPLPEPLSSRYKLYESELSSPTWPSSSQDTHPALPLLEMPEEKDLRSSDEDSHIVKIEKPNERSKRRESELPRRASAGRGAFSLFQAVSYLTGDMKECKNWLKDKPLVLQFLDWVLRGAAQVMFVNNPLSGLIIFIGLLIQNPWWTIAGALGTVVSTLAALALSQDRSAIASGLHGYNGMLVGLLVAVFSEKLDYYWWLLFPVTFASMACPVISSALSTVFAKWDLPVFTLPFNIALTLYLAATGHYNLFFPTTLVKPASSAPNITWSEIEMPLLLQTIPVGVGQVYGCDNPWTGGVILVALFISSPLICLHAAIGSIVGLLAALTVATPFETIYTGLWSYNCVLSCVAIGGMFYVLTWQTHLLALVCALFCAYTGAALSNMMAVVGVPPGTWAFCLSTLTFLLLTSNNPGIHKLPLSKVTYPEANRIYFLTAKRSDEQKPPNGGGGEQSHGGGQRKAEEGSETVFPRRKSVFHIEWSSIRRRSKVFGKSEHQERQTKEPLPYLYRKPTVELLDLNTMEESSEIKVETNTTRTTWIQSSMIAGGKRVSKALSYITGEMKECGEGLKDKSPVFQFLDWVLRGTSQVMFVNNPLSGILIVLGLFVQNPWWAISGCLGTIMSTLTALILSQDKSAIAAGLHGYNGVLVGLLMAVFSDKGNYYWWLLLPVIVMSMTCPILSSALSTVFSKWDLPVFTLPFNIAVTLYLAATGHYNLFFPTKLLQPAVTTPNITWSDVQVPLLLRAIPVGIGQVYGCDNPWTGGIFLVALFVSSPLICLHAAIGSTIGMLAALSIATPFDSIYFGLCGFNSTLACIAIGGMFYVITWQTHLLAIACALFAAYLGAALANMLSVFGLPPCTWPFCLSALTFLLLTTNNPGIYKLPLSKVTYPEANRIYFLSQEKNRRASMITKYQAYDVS
Test: UT-A1-facilitated urea flux across MDCK-UT-A1 cell layers
Assay type: cell-based
Conditions: forskolin-stimulated MDCK-UT-A1 cells, 15-min time point; read-out: EC50 against rat UT-A1
Procedure: Concentration-inhibition studies were performed to study the effect of the active mouse UT-B inhibitors on urea transport by UT-A. The amino acid sequences of UT-B and UT-A urea transporter isoforms share significant similarity. The cells used in these studies were MDCK cells that expressed rat UT-A1. MDCK-UT-A1-expressing cells were grown on collagen-coated porous filters until they were electrically tight, at which point 15 mM urea was introduced into buffer bathing the basolateral cell surface.
MDCK cells stably transfected with rat UT-A1 (MDCK-UT-A1) (Fröhlich et al., Am J Physiol. in press; Fröhlich et al., Am. J. Physiol. Cell Physiol. 286:C1264-70 (2004). Epub on Jan. 28, 2004) were generously provided by Dr. Jeffrey Sands (Emory University School of Medicine, Atlanta, Ga.). Cells were grown in Dulbecco's Modified Eagle Medium (DMEM) with bicarbonate and supplemented with 10% fetal bovine serum (FBS), 25 mM HEPES buffer, penicillin G (100 U/mL), streptomycin (100 μg/mL) and hygromycin (500 μg/mL). For determining urea flux, cells were grown on 12-mm collagen-coated TRANSWELL inserts (0.4 μm pore size; Costar) as described (Fröhlich et al., Am J Physiol. in press; Fröhlich et al., 2004, supra). The TRANSWELL inserts were incubated in hygromycin-free medium for 1 hr in a 5% CO2 tissue culture incubator (37° C.), and then 2×10^5 cells/cm^2 were loaded onto each insert. Cells were used after culturing the cells for 4 days in hygromycin-free medium, at which time they formed tight monolayers (transepithelial resistance 500-600 Ω·cm^2).
UT-A1-facilitated urea flux in the basolateral-to-apical direction across unstimulated and forskolin-stimulated MDCK-UT-A1 cell layers was measured in response to a 15-mM urea gradient. Experiments were carried out in 12-well plates in which PBS, containing either DMSO vehicle or forskolin, with or without UT-B inhibitor, added to both the apical-facing (0.2 mL) and basal-facing (1 mL) surfaces of cells on the porous filters. Cultures were incubated in the absence of urea for 30 min at 37° C. Then, the basal-facing solution was replaced with PBS (containing same components) with 15 mM urea. Five μL samples of apical fluid were collected at specified times during incubation at 37° C., and urea concentration was determined using a commercial kit based on chromogenic urea complexation at 520-nm wavelength (Quantichrom™ Urea Assay Kit, BioAssay Systems, Hayward, Calif.). Forskolin (10 μM), with or without UT-B transport inhibitors, was added from 1000× DMSO stock solutions (0.2% final DMSO content). Inhibition of UT-A1-mediated transport was defined as % inhibition=100% (Aforsk−Atest)/(Aforsk−Aphlor). Aforsk, and Aphlor were averaged absorbance values (at 520 nm) for cultures treated with forskolin and forskolin+phloretin, respectively, and Atest were values from cultures treated with forskolin+test compound.

Row | EC50 [µM] | SMILES
1 | ~15 | Cc1ccc(Nc2nnc(-c3ccc(C(N)=O)cc3)c3ccccc23)cc1 [ureainh-302]
2 | ~1.2 | NC(=O)CSc1oc(-c2ccccc2)nc1S(=O)(=O)c1ccc(Br)cc1 [ureainh-101]
